This is an account of results in patent publication US12018059B2, “Human amylin analog polypeptides and methods of use” (Intarcia Therapeutics, Inc., priority 2018, dated 2024).

Starred links: 1 amine or outer side, 2 acyl side, 3 side chain; linkers in the order of their positions; H or OH if unused. Positions of bridges follow the written chain, without caps; N, C: chain ends. Non-standard residues stand in square brackets, D forms with d. Residues, ends and D or L forms follow the SMILES beside them. Groups on a side chain read outwards from the residue. *: point of attachment. X3 = O=C(O)CCCCCCCCCCCCCCCCCCC(=O)N[C@@H](CCC(=O)NCOCCOCC(=O)NCOCCOCC(=O)*)C(=O)O; X2 = O=C(O)CCCCCCCCCCCCCCCCC(=O)N[C@@H](CCC(=O)NCOCCOCC(=O)NCOCCOCC(=O)*)C(=O)O; X1 = O=C(O)CCCCCCCCCCCCCCCCCCC(=O)NCOCCOCC(=O)*; C20 diacid = O=C(O)CCCCCCCCCCCCCCCCCCC(=O)*; C18 diacid = O=C(O)CCCCCCCCCCCCCCCCC(=O)*; γGlu = O=C(O)[C@H](CCC(=O)[*:2])N[*:1]; Palmitoyl = CCCCCCCCCCCCCCCC(=O)*

This series can be described thus: in vivo. Set-up: species or system Sprague-Dawley rats. The settings on record: rat, iv, 0.033 mg/kg. In short, it runs like this:
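Male Sprague-Dawley rats, non-fasted (n=3), given peptide in saline as 1-h IV or SC infusion at 0.033 mg/kg, or SC bolus at 0.3 mg/kg; jugular blood to 48 h into K2EDTA plus protease inhibitors. Plasma extracted by precipitation or WCX solid-phase extraction, quantified by UPLC-MS/MS against standards in matching rat plasma.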
One may read the Vd as the apparent volume that relates the amount in the body to the concentration in plasma or blood. A higher Vd goes with extensive tissue distribution. As a reminder, the clearance is the rate of elimination divided by the concentration. One may read the half-life as how long it takes for the measured level to halve. In turn, `CCCCCCCCCCCCCCCC(=O)N[C@@H](CCC(=O)N[C@@H](CCC(=O)N[C@@H](CCC(=O)N[C@@H](CCC(=O)N[C@@H](CCC(=O)NCCCC[C@@H](NC(=O)[C@H](CCC(=O)O)NC(=O)[C@H](CC(N)=O)NC(=O)[C@H](C)NC(=O)[C@H](CC(C)C)NC(=O)[C@H](CCCNC(=N)N)NC(=O)[C@H](CCC(N)=O)NC(=O)[C@@H](NC(=O)[C@H](C)NC(=O)[C@@H]1CSSC[C@H](NC(=O)[C@@H](N)CO)C(=O)N[C@@H](CC(N)=O)C(=O)N[C@@H]([C@@H](C)O)C(=O)N[C@@H](CO)C(=O)N[C@@H]([C@@H](C)O)C(=O)N1)[C@@H](C)O)C(=O)N[C@@H](Cc1c[nH]cn1)C(=O)N[C@@H](CCCCN)C(=O)N[C@@H](CO)C(=O)N[C@@H](CO)C(=O)N[C@@H](CC(N)=O)C(=O)N[C@@H](CC(N)=O)C(=O)N[C@@H](Cc1ccccc1)C(=O)NCC(=O)N1CCC[C@H]1C(=O)N[C@H](C(=O)N[C@@H](CC(C)C)C(=O)N1CCC[C@H]1C(=O)N1CCC[C@H]1C(=O)N[C@H](C(=O)N[C@@H](CCCCN)C(=O)N[C@H](C(=O)NCC(=O)N[C@@H](CO)C(=O)N[C@@H](CCC(=O)O)C(=O)N[C@H](C(=O)N[C@@H](Cc1ccc(O)cc1)C(N)=O)[C@@H](C)O)C(C)C)[C@@H](C)O)[C@@H](C)CC)C(=O)O)C(=O)O)C(=O)O)C(=O)O)C(=O)O` [Compound A91] (H-SCNTSTCATQRLANE[dK]([γGlu-γGlu-γGlu-γGlu-γGlu-Palmitoyl])HKSSNNFGPILPPTKVGSETY-NH2; disulfide 2-7) gave a Vd of 0.194 L/kg, a clearance of 11.6 mL/h/kg and a half-life of 13.2 h.
The compound `CC[C@H](C)[C@H](NC(=O)[C@@H]1CCCN1C(=O)CNC(=O)[C@H](Cc1ccccc1)NC(=O)[C@H](CC(N)=O)NC(=O)[C@H](CC(N)=O)NC(=O)[C@H](CO)NC(=O)[C@H](CO)NC(=O)[C@H](CCCCN)NC(=O)[C@H](Cc1c[nH]cn1)NC(=O)[C@H](CCCCNC(=O)CCCCCCCCCCCCCCCCC(=O)O)NC(=O)[C@H](CCC(=O)O)NC(=O)[C@H](CC(N)=O)NC(=O)[C@H](C)NC(=O)[C@H](CC(C)C)NC(=O)[C@H](CCCNC(=N)N)NC(=O)[C@H](CCC(N)=O)NC(=O)[C@@H](NC(=O)[C@H](C)NC(=O)[C@@H]1CSSC[C@H](NC(=O)[C@@H](N)CO)C(=O)N[C@@H](CC(N)=O)C(=O)N[C@@H]([C@@H](C)O)C(=O)N[C@@H](CO)C(=O)N[C@@H]([C@@H](C)O)C(=O)N1)[C@@H](C)O)C(=O)N[C@@H](CC(C)C)C(=O)N1CCC[C@H]1C(=O)N1CCC[C@H]1C(=O)N[C@H](C(=O)N[C@@H](CCCCN)C(=O)N[C@H](C(=O)NCC(=O)N[C@@H](CO)C(=O)N[C@@H](CCC(=O)O)C(=O)N[C@H](C(=O)N[C@@H](Cc1ccc(O)cc1)C(N)=O)[C@@H](C)O)C(C)C)[C@@H](C)O` [Compound A93] (H-SCNTSTCATQRLANEK(C18 diacid)HKSSNNFGPILPPTKVGSETY-NH2; disulfide 2-7) had a Vd of 0.129 L/kg, a clearance of 6.54 mL/h/kg and a half-life of 16.7 h.
`CC[C@H](C)[C@H](NC(=O)[C@@H]1CCCN1C(=O)CNC(=O)[C@H](Cc1ccccc1)NC(=O)[C@H](CC(N)=O)NC(=O)[C@H](CC(N)=O)NC(=O)[C@H](CO)NC(=O)[C@H](CO)NC(=O)[C@H](CCCCN)NC(=O)[C@H](Cc1c[nH]cn1)NC(=O)[C@H](CC(C)C)NC(=O)[C@H](CCCCNC(=O)CC[C@H](NC(=O)CC[C@H](NC(=O)COCCOCNC(=O)COCCOCNC(=O)CC[C@H](NC(=O)CCCCCCCCCCCCCCCCCCC(=O)O)C(=O)O)C(=O)O)C(=O)O)NC(=O)[C@H](CC(N)=O)NC(=O)[C@H](C)NC(=O)[C@H](CC(C)C)NC(=O)[C@H](CCCNC(=N)N)NC(=O)[C@H](CCC(N)=O)NC(=O)[C@@H](NC(=O)[C@H](C)NC(=O)[C@@H]1CSSC[C@H](NC(=O)[C@@H](N)CO)C(=O)N[C@@H](CC(N)=O)C(=O)N[C@@H]([C@@H](C)O)C(=O)N[C@@H](CO)C(=O)N[C@@H]([C@@H](C)O)C(=O)N1)[C@@H](C)O)C(=O)N[C@@H](CC(C)C)C(=O)N1CCC[C@H]1C(=O)N1CCC[C@H]1C(=O)N[C@H](C(=O)N[C@@H](CCCCN)C(=O)N[C@H](C(=O)NCC(=O)N[C@@H](CO)C(=O)N[C@@H](CCC(=O)O)C(=O)N[C@H](C(=O)N[C@@H](Cc1ccc(O)cc1)C(N)=O)[C@@H](C)O)C(C)C)[C@@H](C)O` [Compound A94] (H-SCNTSTCATQRLANK([γGlu-γGlu-X3])LHKSSNNFGPILPPTKVGSETY-NH2; disulfide 2-7; N-terminus assumed): the Vd worked out at 0.084 L/kg, the clearance came out at 2.19 mL/h/kg and the half-life is 29.3 h.
`CC[C@H](C)[C@H](NC(=O)[C@@H]1CCCN1C(=O)CNC(=O)[C@H](Cc1ccccc1)NC(=O)[C@H](CC(N)=O)NC(=O)[C@H](CC(N)=O)NC(=O)[C@H](CO)NC(=O)[C@H](CO)NC(=O)[C@H](CCCCN)NC(=O)[C@H](Cc1c[nH]cn1)NC(=O)[C@H](CC(C)C)NC(=O)[C@@H](CCCCNC(=O)CC[C@H](NC(=O)CC[C@H](NC(=O)COCCOCNC(=O)CCCCCCCCCCCCCCCCCCC(=O)O)C(=O)O)C(=O)O)NC(=O)[C@H](CC(N)=O)NC(=O)[C@H](C)NC(=O)[C@H](CC(C)C)NC(=O)[C@H](CCCNC(=N)N)NC(=O)[C@H](CCC(N)=O)NC(=O)[C@@H](NC(=O)[C@H](C)NC(=O)[C@@H]1CSSC[C@H](NC(=O)[C@@H](N)CO)C(=O)N[C@@H](CC(N)=O)C(=O)N[C@@H]([C@@H](C)O)C(=O)N[C@@H](CO)C(=O)N[C@@H]([C@@H](C)O)C(=O)N1)[C@@H](C)O)C(=O)N[C@@H](CC(C)C)C(=O)N1CCC[C@H]1C(=O)N1CCC[C@H]1C(=O)N[C@H](C(=O)N[C@@H](CCCCN)C(=O)N[C@H](C(=O)NCC(=O)N[C@@H](CO)C(=O)N[C@@H](CCC(=O)O)C(=O)N[C@H](C(=O)N[C@@H](Cc1ccc(O)cc1)C(N)=O)[C@@H](C)O)C(C)C)[C@@H](C)O` [Compound A96] (H-SCNTSTCATQRLAN[dK]([γGlu-γGlu-X1])LHKSSNNFGPILPPTKVGSETY-NH2; disulfide 2-7; N-terminus assumed) showed a Vd of 0.153 L/kg, a clearance of 5.98 mL/h/kg and a half-life of 20.1 h.
`CC[C@H](C)[C@H](NC(=O)[C@@H]1CCCN1C(=O)CNC(=O)[C@H](Cc1ccccc1)NC(=O)[C@H](CC(N)=O)NC(=O)[C@H](CC(N)=O)NC(=O)[C@H](CO)NC(=O)[C@H](CO)NC(=O)[C@H](CCCCN)NC(=O)[C@H](Cc1c[nH]cn1)NC(=O)[C@H](CC(C)C)NC(=O)[C@@H](CCCCNC(=O)CC[C@H](NC(=O)CC[C@H](NC(=O)CCCCCCCCCCCCCCCCCCC(=O)O)C(=O)O)C(=O)O)NC(=O)[C@H](CC(N)=O)NC(=O)[C@H](C)NC(=O)[C@H](CC(C)C)NC(=O)[C@H](CCCNC(=N)N)NC(=O)[C@H](CCC(N)=O)NC(=O)[C@@H](NC(=O)[C@H](C)NC(=O)[C@@H]1CSSC[C@H](NC(=O)[C@@H](N)CO)C(=O)N[C@@H](CC(N)=O)C(=O)N[C@@H]([C@@H](C)O)C(=O)N[C@@H](CO)C(=O)N[C@@H]([C@@H](C)O)C(=O)N1)[C@@H](C)O)C(=O)N[C@@H](CC(C)C)C(=O)N1CCC[C@H]1C(=O)N1CCC[C@H]1C(=O)N[C@H](C(=O)N[C@@H](CCCCN)C(=O)N[C@H](C(=O)NCC(=O)N[C@@H](CO)C(=O)N[C@@H](CCC(=O)O)C(=O)N[C@H](C(=O)N[C@@H](Cc1ccc(O)cc1)C(N)=O)[C@@H](C)O)C(C)C)[C@@H](C)O` [Compound A97] (H-SCNTSTCATQRLAN[dK]([γGlu-γGlu-C20 diacid])LHKSSNNFGPILPPTKVGSETY-NH2; disulfide 2-7): the Vd is 0.0995 L/kg, the clearance came out at 3.62 mL/h/kg and the half-life is 21 h.
In turn, `CC[C@H](C)[C@H](NC(=O)[C@@H]1CCCN1C(=O)CNC(=O)[C@H](Cc1ccccc1)NC(=O)[C@H](CC(N)=O)NC(=O)[C@H](CC(N)=O)NC(=O)[C@H](CO)NC(=O)[C@H](CO)NC(=O)[C@H](CCCCN)NC(=O)[C@H](CCCCNC(=O)COCCOCNC(=O)COCCOCNC(=O)CC[C@H](NC(=O)CCCCCCCCCCCCCCCCC(=O)O)C(=O)O)NC(=O)[C@H](CC(C)C)NC(=O)[C@H](CCC(=O)O)NC(=O)[C@H](CC(N)=O)NC(=O)[C@H](C)NC(=O)[C@H](CC(C)C)NC(=O)[C@H](CCCNC(=N)N)NC(=O)[C@H](CCC(N)=O)NC(=O)[C@@H](NC(=O)[C@H](C)NC(=O)[C@@H]1CSSC[C@H](NC(=O)[C@@H](N)CO)C(=O)N[C@@H](CC(N)=O)C(=O)N[C@@H]([C@@H](C)O)C(=O)N[C@@H](CO)C(=O)N[C@@H]([C@@H](C)O)C(=O)N1)[C@@H](C)O)C(=O)N[C@@H](CC(C)C)C(=O)N1CCC[C@H]1C(=O)N1CCC[C@H]1C(=O)N[C@H](C(=O)N[C@@H](CCCCN)C(=O)N[C@H](C(=O)NCC(=O)N[C@@H](CO)C(=O)N[C@@H](CCC(=O)O)C(=O)N[C@H](C(=O)N[C@@H](Cc1ccc(O)cc1)C(N)=O)[C@@H](C)O)C(C)C)[C@@H](C)O` [Compound A99] (H-SCNTSTCATQRLANELK(X2)KSSNNFGPILPPTKVGSETY-NH2; disulfide 2-7; N-terminus assumed) gave a Vd of 0.128 L/kg, a clearance of 5.69 mL/h/kg and a half-life of 19.5 h.
